The text below walks through data of PubChem BioAssay AID1259408 (Genetic Toxicology Data Bank (GENE-TOX), 2018).

The data set concerns GENE-TOX genotoxicity assays, various organisms and cells. The data set can be described thus: GENE-TOX mutagenicity studies. The following applies: for call: Assay Type: In vivo carcinogenicity studies.
[1] abbreviates: Species/Cell Type: Salmonella typhimurium, Assay Type: Forward and reverse gene mutation, host-mediated assay, Assay Code: HMAT, Evaluation Type: Evaluation A (Pre-1980).
The mark [2] stands for this setting: Species/Cell Type: Human lymphocytes, Assay Type: Sister-chromatid exchange (SCE) in vitro, Assay Code: SCLT, Evaluation Type: Evaluation B (Post-1980).
The mark [3] stands for this setting: Species/Cell Type: Human, Assay Type: Sister-chromatid exchange (SCE) in vitro, Assay Code: SC1T, Evaluation Type: Evaluation B (Post-1980).
Where [4] appears, read: Species/Cell Type: Nonhuman, Assay Code: CCGT, Evaluation Type: Evaluation A (Pre-1980).
Setting [5] is: Species/Cell Type: Salmonella typhimurium (one or more of the five standard strains: TA98, TA100, TA1535, TA1537, and TA1538), Assay Type: Histidine reverse gene mutation, Ames assay, Assay Code: SAL+, Evaluation Type: Evaluation A (Pre-1980).
Where [6] appears, read: Species/Cell Type: Bacillus subtilis (H17 vs M45), Assay Type: Rec-assay, spot test, DNA effects (bacterial DNA repair), Assay Code: REW+, Evaluation Type: Evaluation A (Pre-1980).
[7] abbreviates: Species/Cell Type: Nonhuman, Assay Code: CCG+, Evaluation Type: Evaluation A (Pre-1980).
The mark [8] stands for this setting: Species/Cell Type: Drosophila melanogaster, Assay Type: Sex-linked recessive lethal gene mutation, Assay Code: SRL+, Evaluation Type: Evaluation A (Pre-1980).
Setting [9] is: Species/Cell Type: Drosophila melanogaster, Assay Type: Sex-linked recessive lethal gene mutation, Assay Code: SRLT, Evaluation Type: Evaluation A (Pre-1980).
[10] abbreviates: Species/Cell Type: Escherichia coli polA (W3119 vs P3478), Assay Type: Rec-assay, DNA effects (bacterial DNA repair), Assay Code: RE1T, Evaluation Type: Evaluation A (Pre-1980).
Where [11] appears, read: Species/Cell Type: Nonhuman, Assay Type: Sister-chromatid exchange (SCE) in vivo, Assay Code: SC3T, Evaluation Type: Evaluation B (Post-1980).
Where [12] appears, read: Species/Cell Type: Salmonella typhimurium (one or more of the five standard strains: TA98, TA100, TA1535, TA1537, and TA1538), Assay Type: Histidine reverse gene mutation, Ames assay, Assay Code: SAL+*, Activation: With metabolic activation, Evaluation Type: Evaluation A (Pre-1980).

Structures are written as SMILES. The source made the active and inactive calls. No rule for the calls is given here.

For `COc1cc(Cl)c(OC)cc1Cl`, the mutagenic call was “active; positive” (Species/Cell Type: Aspergillus nidulans, Assay Type: Aneuploidy, chromosome aberrations, Assay Code: ASN+, Evaluation Type: Evaluation A (Pre-1980)) and “active; positive” (Species/Cell Type: Aspergillus nidulans, Assay Type: Mitotic recombination, Assay Code: ASG+, Evaluation Type: Evaluation A (Pre-1980)).

For the compound `C#C[C@]1(O)CC[C@H]2[C@@H]3CCc4cc(CC)ccc4[C@H]3CC[C@@]21C` (tested in a mixture with another compound), the mutagenic call (Species/Cell Type: Rodents, Sex: Male, Assay Type: Dominant lethal test, Assay Code: DLTT, Evaluation Type: Evaluation A (Pre-1980)) was “no conclusion”.

`CC(=O)NNC(=O)c1ccncc1`: the mutagenic call under setting [1] is “no conclusion”.

Regarding `Cc1cn([C@H]2C[C@H](O)[C@@H](CO)O2)c(=O)[nH]c1=O`, the mutagenic call (Species/Cell Type: Chinese hamster lung (V79) cells, Assay Type: Forward gene mutation at the HPRT or ouabain locus, Assay Code: V79+, Evaluation Type: Evaluation A (Pre-1980)) is “active; positive”; the mutagenic call (Species/Cell Type: Glycine max (soybean), Assay Type: Gene mutation, Assay Code: GLM-, Evaluation Type: Evaluation A (Pre-1980)) is “inactive; negative”; the mutagenic call under setting [2] is “no conclusion”; the mutagenic call under setting [3] was “no conclusion”; the mutagenic call (Species/Cell Type: Mouse (C3H/10T1/2) cells, Assay Type: Cell transformation, Assay Code: CTH-, Evaluation Type: Evaluation A (Pre-1980)) is “inactive; negative”; the mutagenic call (Species/Cell Type: Nonhuman, Assay Type: Sister-chromatid exchange (SCE) in vitro, Assay Code: SC2+D, Dose Response: With dose response, Evaluation Type: Evaluation B (Post-1980)) was “active; positive”. Moreover, under setting [4], the call is “no conclusion”.

As for `c1cc2c(cc1CC1CO1)OCO2` (stereo not given), the mutagenic call under setting [5] was “active; positive”.

For the compound `O=CNNc1nc(-c2ccc([N+](=O)[O-])o2)cs1`, the mutagenic call is “active; positive” under setting [6]; “active; positive” (Species/Cell Type: Escherichia coli WP2, Assay Type: Tryptophan reverse gene mutation, Assay Code: WP2+, Evaluation Type: Evaluation A (Pre-1980)); “active; positive” (Species/Cell Type: Escherichia coli WP2 UVRA, Assay Type: Tryptophan reverse gene mutation, Assay Code: WPU+, Evaluation Type: Evaluation A (Pre-1980)); “active; positive” (Species/Cell Type: Mouse, Sex: Male, Assay Type: Sperm morphology, Assay Code: SPI+, Evaluation Type: Evaluation A (Pre-1980)); “active; positive” under setting [5]. Further, the call under setting [7] is “active; positive”.

As for `CN(C)N=Nc1ccc(Cl)cc1`, the mutagenic call is “active; positive” under setting [8]; “active; positive” (Species/Cell Type: Mammalian polychromatic erythrocytes, Assay Type: Micronucleus test, chromosome aberrations, Assay Code: MNT+, Evaluation Type: Evaluation A (Pre-1980)); “active; positive” (Species/Cell Type: Saccharomyces cerevisiae, Assay Type: Mitotic recombination or gene conversion, Assay Code: YEC+, Evaluation Type: Evaluation A (Pre-1980)).

Turning to `O=NN1CCC(=O)NC1=O`, the mutagenic call under setting [5] was “active; positive”.

As for `Cc1c(C)c2c(c(C)c1O)CCC(C)(CCCC(C)CCCC(C)CCCC(C)C)O2` (stereo not given), the mutagenic call under setting [2] was “no conclusion” and the mutagenic call under setting [3] is recorded as “no conclusion”.

With `c1ccc2c(c1)cc1ccc3c4ccccc4cc4ccc2c1c43`, the call under setting [7] was “active; positive”.

For the compound `COC(=O)/C=C(\C)CCCC(C)(Cl)CCCC(C)(C)Cl` (stereo not given), the mutagenic call under setting [9] was “no conclusion”.

In the case of `CCN(CCCCCCN(CC)C(=O)C(Cl)Cl)C(=O)C(Cl)Cl`, the mutagenic call (Species/Cell Type: Human, Sex: Male, Assay Type: Sperm morphology, Assay Code: SPH+, Evaluation Type: Evaluation A (Pre-1980)) was “active; positive”.

Regarding `CC1CN1P(=O)(Cc1ccccc1)N1CC1C` (stereo not given), the mutagenic call under setting [8] is “active; positive”.

Take `Nc1ccccc1-c1ccccc1`: the mutagenic call is, setting by setting: (Species/Cell Type: Escherichia coli polA (W3110 vs P3478), Assay Type: Rec-assay, DNA effects (bacterial DNA repair), Assay Code: RE2-, Evaluation Type: Evaluation A (Pre-1980)) “inactive; negative”; under setting [10], “no conclusion”; (Species/Cell Type: Fischer rat embryo (RLV/1706) cells, Assay Type: Cell transformation, viral enhanced, Assay Code: CTR-, Evaluation Type: Evaluation A (Pre-1980)) “inactive; negative”; (Species/Cell Type: Mouse embryo (AKR/ME) cells, Assay Type: Cell transformation, Assay Code: CTK+, Evaluation Type: Evaluation A (Pre-1980)) “active; positive”; under setting [11], “no conclusion”; (Species/Cell Type: Rat primary hepatocytes, Assay Type: Unscheduled DNA synthesis (UDS) in vitro, DNA effects, Assay Code: UDP-, Evaluation Type: Evaluation A (Pre-1980)) “inactive; negative”. Moreover, the mutagenic call reads like this: (Species/Cell Type: Saccharomyces cerevisiae, Assay Type: Mitotic recombination or gene conversion, Assay Code: YEH-, Evaluation Type: Evaluation A (Pre-1980)) “inactive; negative”; under setting [12], “active; positive”; (Species/Cell Type: Salmonella typhimurium, Assay Type: Forward and reverse gene mutation, body fluid assay, Assay Code: BFU-, Evaluation Type: Evaluation A (Pre-1980)) “inactive; negative”; (Species/Cell Type: Salmonella typhimurium, Assay Type: Forward and reverse gene mutation, host-mediated assay, Assay Code: HMA-, Evaluation Type: Evaluation A (Pre-1980)) “inactive; negative”; (Species/Cell Type: Syrian hamster embryo (SHE) cells, Assay Type: Cell transformation, clonal assay, Assay Code: CTC-, Evaluation Type: Evaluation A (Pre-1980)) “inactive; negative”. Besides, the call under setting [4] is reported as “no conclusion”.

`CC(=O)[O][Hg][c]1ccccc1`: the mutagenic call was “active; positive” under setting [6]; “active; positive” (Species/Cell Type: Drosophila melanogaster, Assay Type: Aneuploidy, sex chromosome gain, chromosome aberrations, Assay Code: DAG+F, Evaluation Type: Evaluation A (Pre-1980)); “active; positive” (Species/Cell Type: Drosophila melanogaster, Assay Type: Aneuploidy, whole sex chromosome loss, chromosome aberrations, Assay Code: DAC+F, Evaluation Type: Evaluation A (Pre-1980)).

In the case of `c1ccc2c(c1)ccc1[nH]c3ccc4ccccc4c3c12`, under setting [7], the call is “active; positive”.

With `C=CCNC(=O)Nc1nc(-c2ccccc2)cs1`, the mutagenic call under setting [1] is “no conclusion”.

For the compound `CNO`, the mutagenic call (Species/Cell Type: Neurospora crassa, Assay Type: Reverse gene mutation, Assay Code: NER+, Evaluation Type: Evaluation A (Pre-1980)) is “active; positive”.

As to `Cc1cc2c(c3ccc4ccccc4c13)C(=O)CC2`, the mutagenic call under setting [12] was “active; positive”.

Consider `COP(=O)(NC(C)=O)SC` (stereo not given), for which the mutagenic call runs as follows: (Species/Cell Type: Bacillus subtilis (H17 vs M45), Assay Type: Rec-assay, spot test, DNA effects (bacterial DNA repair), Assay Code: REWT, Evaluation Type: Evaluation A (Pre-1980)) “no conclusion”; (Species/Cell Type: Drosophila melanogaster, Assay Type: Sex-linked recessive lethal gene mutation, Assay Code: SRL-, Evaluation Type: Evaluation A (Pre-1980)) “inactive; negative”; (Species/Cell Type: Escherichia coli WP2 UVRA, Assay Type: Tryptophan reverse gene mutation, Assay Code: WPU-*, Activation: With metabolic activation, Evaluation Type: Evaluation A (Pre-1980)) “inactive; negative”; under setting [10], “no conclusion”; (Species/Cell Type: Human diploid fibroblasts, Assay Type: Unscheduled DNA synthesis (UDS) in vitro, DNA effects, Assay Code: UDH-, Evaluation Type: Evaluation A (Pre-1980)) “inactive; negative”; (Species/Cell Type: Mammalian polychromatic erythrocytes, Assay Type: Micronucleus test, chromosome aberrations, Assay Code: MNTT, Evaluation Type: Evaluation B (Post-1980)) “no conclusion”. The mutagenic call by setting is: (Species/Cell Type: Neurospora crassa, Assay Type: Aneuploidy, chromosome aberrations, Assay Code: NEN-, Evaluation Type: Evaluation A (Pre-1980)) “inactive; negative”; under setting [11], “no conclusion”; (Species/Cell Type: Saccharomyces cerevisiae, Assay Type: Mitotic recombination or gene conversion, Assay Code: YEH+, Evaluation Type: Evaluation A (Pre-1980)) “active; positive”; (Species/Cell Type: Salmonella typhimurium (one or more of the five standard strains: TA98, TA100, TA1535, TA1537, and TA1538), Assay Type: Histidine reverse gene mutation, Ames assay, Assay Code: SAL-, Evaluation Type: Evaluation A (Pre-1980)) “inactive; negative”.

For `O=[N+]([O-])c1cnc(CO)n1CCO`, the mutagenic call runs as follows: under setting [2], “no conclusion”; under setting [3], “no conclusion”.

Regarding `CC(=O)[O-].CC(=O)[O-].CC(=O)[O-].CC(=O)[O-].[Pb+2]`, the call under setting [7] was “active; positive”.

Consider `Oc1cc2cccc3ccc4c5ccccc5cc1c4c32`, for which the mutagenic call was “inactive; negative” (Species/Cell Type: Chinese hamster lung (V79) cells, Assay Type: Forward gene mutation at the HPRT or ouabain locus, Assay Code: V79-, Evaluation Type: Evaluation A (Pre-1980)); “no conclusion” (Species/Cell Type: Salmonella typhimurium (one or more of the five standard strains: TA98, TA100, TA1535, TA1537, and TA1538), Assay Type: Histidine reverse gene mutation, Ames assay, Assay Code: SALT, Evaluation Type: Evaluation A (Pre-1980)). For the same compound, under setting [4], the call is recorded as “no conclusion”.

On to `O=c1[nH]cc[nH]1`, for which the mutagenic call under setting [9] is given as “no conclusion”.

With `ClC/C=C/CCl`, the mutagenic call under setting [8] was “active; positive”.
